Data set [1] has as its target T1, PBP3 of P. aeruginosa (PaPBP3) (Pseudomonas aeruginosa, UniProt G3XD46).
T1 construct: P. aeruginosa PBP3 (amino acids 40 to 563); His-tag; made in house; host or cells: E. coli BL21 (DE3) Rosetta, plasmid pET41_PBP-3
Description: S2dfluo fluorescence transpeptidase assay. The format is biochemical. The following applies: for IC50: 300 nM PaPBP3, 30 min preincubation, 37 °C, read-out: IC50 Determination with PaPBP3, S2dfluo Assay; for inhibition at 100 µM: read-out: PBP3 Inhibition at 100 µM (%). The protocol: The assays were carried out in the presence of 5% DMSO and 0.01% Triton X100 to avoid the formation of colloidal structures and adsorption of protein and/or compounds to surfaces. The Z’-factor determined for the assay was 0.73 ± 0.28, indicating the suitability and robustness of the assay for high throughput screening (HTS) (Figure 1B,C).
The activity of soluble ^PaPBP3 (300 nM) was measured in the presence of 0.8 mM S2d, 1 mM D-alanine and 0.5 mM mBBr for 25 min by monitoring the increase in the fluorescence intensity of mBBr at Ex/Em: 394/490 nm using an Infinite M1000 microplate reader (Tecan, Männedorf, Switzerland). To test the effect of inhibitors, 100 µM or 0.8 to 100 µM of compounds diluted in 96% DMSO were incubated for 30 min and 450 rpm with 300 nM soluble PBP3. The incubation period was set to improve the binding of non-covalent inhibitors and 0.01% Triton X100 (Sigma-Aldrich, Taufkirchen, Germany) was added to prevent aggregation of compounds. The enzyme reaction was started by adding a substrate mix of 0.8 mM S2d and […]. The enzyme, compound and substrate mix were mixed 1:1, pipetted with a Liquidator 96 (Melter Toledo, Gießen, Germany) and the fluorescence intensity was directly monitored with an Infinite M1000 microplate reader (Tecan) at Ex/Em: 394/490 nm. The assay was performed in black, flat-bottom 96-well microplates (Greiner Bio-One, Kremsmünster, Austria) at 37 °C in Sorensen Phosphate Buffer (57 mM Na2HPO4 and 10 mM KH2PO4, pH 7.5 + 0.01% Triton X-100). The velocity of the PBP3 reaction was calculated in the presence of each concentration of compound and the velocity values were used to estimate IC50 by sigmoidal nonlinear regression, using Prism v.9 software (San Diego, CA, USA) and the velocity of the reaction at each concentration.

Data set [2] addresses T1, PBP3 of P. aeruginosa (PaPBP3). The experiment in a line: FP-Bocillin FL competition assay. The format is binding. Particulars: 30 min preincubation before Bocillin FL, 37 °C; for IC50: read-out: IC50 Determination with PaPBP3, FP-Bocillin FL Assay. The protocol: Bocillin FL is a fluorescent penicillin V derivate used as a competitor for PBP inhibitors.
Fluorescence polarisation (FP) experiments were carried out as described before. To determine the binding of Bocillin FL to PBP, 200 nM of ^PaPBP3 was incubated for 30 min with 100 nM of Bocillin FL (Thermo Fisher Scientific, Waltham, MA, USA). The fluorescence polarisation signal of free Bocillin FL was monitored in a Pherastar microplate reader (BMG Labtech, Ortenberg, Germany) in the polarisation mode with Ex/Em: 485/520 nm excitation and emission filters. Millipolarisation (mP) units were calculated using the MARS data analysis software v30.40.R2 (BMG Labtech, Ortenberg, Germany). All the experiments were done in Sorensen buffer at 37 °C using flat-bottom, black 96-well plates. […] Bocillin FL was diluted in Sorensen buffer and added to the reaction and directly measured for 30 min at 37 °C. The FP was continuously measured in the presence and absence of compound and enzyme. […] The estimated IC50 values were established by sigmoidal nonlinear regression, using Prims v.8 software.

Data set [3] has as its system NRK-52E, epithelial kidney cell line. Description: Cytotoxicity assay (PrestoBlue), NRK52E. Particulars: CC50, 72 h. As for the experimental part: (§1) We finally tested the cytotoxicity of the compounds against four eukaryotic cell lines (Table 2 and Table S5), NRK-52E, an epithelial kidney cell line of Rattus norvegicus; Hep G2, an human epithelial liver cell line; and two suspension cell lines: CCRF-CEM, a T lymphoblast; and H9, a cutaneous T lymphocyte cell line.
(§2) Cell lines stored at −120 °C were thawed to 37 °C and resuspended in 10 mL of medium pre-warmed to 37 °C. Cells were pelleted at 300× g for 10 min, and then resuspended in fresh medium, seeded in a T-75 culture flask, and placed in a CO2 incubator (37 °C with 5% CO2 tension). Once the cells reached approximately 70–80% confluency, they were then passaged regularly. The adherent cell lines NRK52E, HepG2 and Huh 7 were washed once with 10 mL DPBS and detached with Trypsin-EDTA for 5 to 7 min and resuspended in 15 mL of the appropriate medium. The suspension cell line CCRF-CEM were diluted and resuspended in fresh RPMI 1640 PAN medium. To calculate the cell density, the cell resuspensions were diluted 1:6 with DPBS. Equal volumes of cell suspension and Trypan Blue were mixed and gently loaded into a haemocytometer (INCYTO, 31056 Republic of Korea). In each experiment, cell concentrations were adjusted to reach a concentration of 2.5 × 10^3 cell/well for NRK52E, 5 × 10^3 cell/well for HepG2, 6.2 × 10^4 cell/well for CCRF-CEM and 3 × 10^3 for H9. The cells were incubated with decreasing concentration of compounds (1 µL in 96% DMSO) for 72 h at 37 °C with 5% CO2 tension. Cycloheximide, a cytotoxic compound that interferes with the translocation step in eukaryotic protein synthesis was used as a control for the experiments. The assay was carried out in flat-bottom, transparent 96-well plates. Cell viability was determined using the PrestoBlue reagent (Thermo Fisher Scientific, Waltham, MA, USA) according to the manufacture’s protocol. First, 10× PrestoBlue was added to each well to obtain a 1× solution, and incubated at 37 °C for 45 min. Then, fluorescence was measured at Ex/Em: 550/595 nm using a ClarioStar microplate reader (BMG Labtech). Cytotoxicity was determined as the percentage of the difference in absorbance of the untreated sample to the treated sample. CC50 was calculated using the values obtained in each concentration using the sigmoidal dose-response by Prism v.8. The media used in each cell line is detailed in Table S6.

The test system of data set [4] is B. subtilis 168. The experiment in a line: MIC broth microdilution, B. subtilis. The format is cell-based. The following applies: Bacillus subtilis, 168; Table S3. As for the experimental part: (§3) MIC determination was performed via standard broth microdilution according to the Clinical & Laboratory Standards institute guidelines. Overnight colonies grown on BD-Columbia agar with 5% Sheep Blood (Becton Dickinson, Franklin Lakes, NJ, USA), were diluted in Mueller Hinton Broth 2 cation adjusted (MH+) medium (Thermo Fisher Scientific) to a concentration of 5 × 10^5 CFU/mL. Serial dilutions (1:2) of test compounds were incubated at 37 °C with 5 × 10^4 bacteria in a final volume of 100 μL. Sterile and growth controls in the presence of 1% DMSO and PMBN if the case, and the positive controls, aztreonam (AZT) and tigecycline (TIG) were included in the experiments (Table S4). The MICs were determined visually after 18 h at 37 °C and confirmed by the addition of 10% PrestoBlue (ThermoFisher Scientific) reagent according to the manufacture’s protocol. The fluorescence signal of PrestoBlue reagent was measured at Ex/Em: 550/595 nm after 30 min incubation at 37 °C using at a ClarioStar microplate reader (BMG Labtech). PrestoBlue reduction occurs in the presence of living cells and consequently turns red in colour and is highly fluorescent.
On the technique in general: Broth dilution looks for growth in wells or tubes with falling amounts of substance.

Data set [5] concerns H9, cutaneous T lymphocyte cell line. Description: Cytotoxicity assay (PrestoBlue), H9. Particulars: CC50, 72 h. As for the experimental part:
as §1, §2

Data set [6] deals with E. coli Neumann. Description: MIC broth microdilution, E. coli. Format: cell-based. Particulars: Escherichia coli; Table S3; read-out: MIC (µM) E. coli Neumann. As for the experimental part: as §3
In data set [7] the test system is A. baumannii ATCC15308. The experiment in a line: MIC broth microdilution, A. baumannii. Format: cell-based. Particulars: 10 µg/mL PMBN. The protocol: as §3
For data set [8], the system named is S. pneumoniae. Description: MIC broth microdilution, S. pneumoniae. The format is cell-based. The following applies: Streptococcus pneumoniae; Table S3; read-out: MIC (µM) S. pneumoniae. The protocol:
as §3

The test system of data set [9] is T-lymphoblast CCRF-CEM cell line. The experiment in a line: Cytotoxicity assay (PrestoBlue), CCRF-CEM. The following applies: CC50, 72 h. As for the experimental part: as §1, §2
In data set [10] the test system is S. aureus 133. The experiment in a line: MIC broth microdilution, S. aureus. The format is cell-based. Particulars: Staphylococcus aureus, 133; Table S3. As for the experimental part: as §3
The subject of data set [11] is Hep G2, epithelial liver cell line. The experiment in a line: Cytotoxicity assay (PrestoBlue), HepG2. The following applies: CC50, 72 h. The protocol: as §1, §2
Data set [12] deals with K. pneumoniae clinical isolate. The experiment in a line: MIC broth microdilution, K. pneumoniae. Format: cell-based. The following applies: Klebsiella pneumoniae; Table S3. The protocol: as §3

Structures are written as SMILES. Converted amounts (≈) assume the structure as drawn. Some results are limits rather than exact numbers.

For orientation: IC50 means the point on the concentration scale where inhibition reaches its midpoint. As a reminder, the inhibition is the change of the read-out against control, counted positive when it falls. One may read the MIC as the lowest concentration found to suppress growth.

T1 sequence (G3XD46 40-563): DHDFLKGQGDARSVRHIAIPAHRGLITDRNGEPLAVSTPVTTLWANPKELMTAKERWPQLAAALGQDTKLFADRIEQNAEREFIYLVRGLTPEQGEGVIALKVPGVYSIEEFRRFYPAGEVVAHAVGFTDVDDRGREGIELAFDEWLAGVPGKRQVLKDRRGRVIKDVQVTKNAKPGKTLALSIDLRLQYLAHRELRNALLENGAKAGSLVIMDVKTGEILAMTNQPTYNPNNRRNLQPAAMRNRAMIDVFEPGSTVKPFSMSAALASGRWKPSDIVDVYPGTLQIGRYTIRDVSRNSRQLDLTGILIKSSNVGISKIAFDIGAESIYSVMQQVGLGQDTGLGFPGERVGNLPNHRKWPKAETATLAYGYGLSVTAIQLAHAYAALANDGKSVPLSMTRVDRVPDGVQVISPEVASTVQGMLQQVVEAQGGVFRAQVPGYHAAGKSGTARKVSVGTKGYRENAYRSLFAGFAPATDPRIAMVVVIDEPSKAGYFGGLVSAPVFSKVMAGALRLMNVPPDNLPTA

Take `CCCCCCOc1cccc(N2C(=O)C(O)=C(C(=O)c3ccccc3)C2c2ccc(C(C)C)cc2)c1` (stereo not shown) [Compound 2]: in [1], the half-inhibitory concentration (IC50) was determined as 4 ± 6 µM and the inhibition at 100 µM turned out to be 101 ± 0.4%. Moreover, the IC50 in data set [2] was 17 ± 9 µM.
In the case of `CCCCCCOc1cccc(N2C(=O)C(O)=C(C(=O)c3ccccc3)C2c2ccccc2F)c1` (stereo not shown) [Compound 3], in data set [1], the 50% inhibitory concentration (IC50) was 19 ± 1 µM and the inhibition at 100 µM amounted to 100 ± 0.8%. Moreover, in data set [2], the “IC50 Determination with PaPBP3, FP-Bocillin FL Assay” value is on record as “failed to inhibit Bocillin FL binding” and the half-maximal inhibitory concentration (IC50) is over 100 µM.
`CCOC(=O)c1ccc(N2C(=O)C(O)=C(S(=O)(=O)c3ccccc3)C2c2ccc(C(C)C)cc2)cc1` (stereo not shown) [Compound 4]: in [1], the IC50 came to 24 ± 20 µM and the inhibition at 100 µM is 101%. In data set [2], the “IC50 Determination with PaPBP3, FP-Bocillin FL Assay” value was “failed to inhibit Bocillin FL binding” and the IC50 was over 100 µM.
For the compound `COc1ccc(N2C(=O)C(O)=C(C(=O)c3ccc4c(c3)OCO4)C2c2ccc(Br)cc2)cc1` (stereo not shown) [Compound 5], the results for the IC50 in data set [1] and in data set [2] were 61 ± 1 µM and 69 ± 13 µM, respectively.
For `COc1ccc(C(=O)C2=C(O)C(=O)N(CCc3c(C)[nH]c4ccccc34)C2c2ccc(Cl)cc2)cc1` (stereo not shown) [Compound 6], in [1], the IC50 amounted to 63 ± 4 µM and the inhibition at 100 µM turned out to be 92 ± 7%. Also, in data set [2], the IC50 was determined as 9 ± 6 µM.
For `COc1ccc(C2=C(O)C(=O)N(c3nc(SCc4ccccc4)n[nH]3)C2c2ccccc2F)cc1` (stereo not shown) [Compound 7], in [1], the IC50 came to 65 ± 19 µM and the inhibition at 100 µM was 62%. The IC50 in [2] came to 58 ± 21 µM.
Turning to `COc1ccc(CN2C(=O)/C(=C(/C)O)C(=O)[C@@H]2COC(C)(C)C)c(OC)c1` [Compound 8], the figures for the half-maximal inhibitory concentration (IC50) in data set [1] and in data set [2] were 66 ± 16 µM and 93 ± 18 µM, respectively.
In the case of `CSc1ccc(C2c3c(oc4cc(C)cc(C)c4c3=O)C(=O)N2CC2CCCO2)cc1` (stereo not shown) [Compound 9], in [1], the 50% inhibitory concentration (IC50) was determined as 99 ± 1 µM and the inhibition at 100 µM amounted to 60%. The half-inhibitory concentration (IC50) in [2] is 18 ± 3 µM.
Take `O=C(C1=C(O)C(=O)N(Cc2c[nH]c3ccccc23)C1c1ccc(Cl)cc1)c1ccc(Br)cc1` (stereo not shown) [Compound 39]: the “Cytotoxicity effect (µM) Epithelial kidney NRK52E” value in data set [3] was over 100 µM. Also, the MIC in data set [4] was over 100 µM; in data set [6], over 100 µM; in data set [8], 25 µM (≈ 13 µg/mL); in data set [10], 25 µM (≈ 13 µg/mL); in data set [12], over 100 µM. The IC50 in data set [1] turned out to be 24 ± 7 µM; in data set [2] it was 11 ± 4 µM. Moreover, in data set [5], the “Cytotoxicity effect (µM) T-lymphocyte H9” value is recorded as over 100 µM. Besides, the “MIC (µM) A. baumanii ATCC15308” value in [7] was over 100 µM. In addition, the “Cytotoxicity CCRF-CEM” value in data set [9] is on record as over 100 µM. The “Cytotoxicity effect (µM) Epithelial liver HepG2” value in data set [11] is on record as over 100 µM.
`C[C@@H]1C[C@@H]([C@H](O)CC2CC(=O)NC(=O)C2)C(=O)[C@@H](C)C1` [Cycloheximide, reference compound]: the “Cytotoxicity effect (µM) Epithelial kidney NRK52E” value in data set [3] was 0.20 ± 0.2 µM. Moreover, in data set [5], the “Cytotoxicity effect (µM) T-lymphocyte H9” value is reported as 0.53 ± 0.3 µM. The “Cytotoxicity CCRF-CEM” value in data set [9] came out at 0.66 ± 0.5 µM. Besides, the “Cytotoxicity effect (µM) Epithelial liver HepG2” value in data set [11] was 1.34 ± 0.7 µM.
